What was measured:
[1] = tested on: adult cardiac ventricular rat myocytes; assay: Adult ventricular myocyte contractility (fractional shortening); assay type: cell-based, Sprague-Dawley rats; conditions: 5 min perfusion, 5 cells tested
Experimental: Adult male Sprague-Dawley rats were anesthetized and the hearts were quickly excised, rinsed and the ascending aorta was cannulated. Continuous retrograde perfusion was initiated on the hearts at a perfusion pressure of 60 cm H2O. Hearts were first perfused with a nominally Ca^2+-free modified Krebs solution of the following composition: 113 mM NaCl, 4.7 mM KCl, 0.6 mM KH2PO4, 0.6 mM Na2HPO4, 1.2 mM MgSO4, 12 mM NaHCO3, 10 mM KHCO3, 30 mM taurine, 5.5 mM glucose and 10 mM Hepes (all Sigma). This medium is not recirculated and is continually aerated with a 95% O2/5% CO2 mixture. After approximately 3 minutes, the heart was perfused with a modified Krebs buffer supplemented with collagenase (Worthington) and 12.5 μM final calcium concentration. The heart was removed from the cannulae after the heart appeared blanched and soft in appearance. The atria and vessels were removed, and the ventricles were gently dissected into smaller pieces with forceps. The tissue was homogenized by repeated pipette trituration, and the collagenase reaction was stopped by 10% bovine calf serum (BCS), sedimentation and resuspension in perfusion buffer containing 5% BCS and 12.5 uM CaCl2. Myocytes were made calcium tolerant by stepwise addition of a CaCl2 solution to a final concentration of 1.2 mM. Cells were then washed and resuspended in Tyrode's buffer (137 mM NaCl, 3.7 mM KCl, 0.5 mM MgCl, 11 mM glucose, 4 mM Hepes, and 1.2 mM CaCl2, pH 7.4). Cells were kept for 60 min at 37° C. prior to initiating experiments and used within 5 hrs of isolation. […] Additionally, only cells whose basal contractility was between 3 and 8% were used in subsequent experiments with compounds.
Aliquots of myocytes in Tyrode's buffer were placed in perfusion chambers (series 20 RC-27NE; Warner Instruments) complete with heating platforms. […] Contractility of the myocytes and contraction and relaxation velocities were then recorded using edge detection.
Five or more individual myocytes were tested per compound from two or more different myocyte preparations. […] These average transients were analyzed using the IonWizard software (IonOptix) to determine changes in diastolic length and fractional shortening. Fractional shortening was calculated as: ((resting length −length at peak contraction) divided by the resting length). The percent change in fractional shortening from baseline was calculated as: ((post-dose fractional shortening/basal fractional shortening)*100). The percent reduction in fractional shortening from baseline was calculated as: (100−percent change in fractional shortening from baseline). Maximum contraction and relaxation velocities (um/sec) was also determined. Results from individual cells were averaged and the SEM was calculated.

[2] = molecular target: T1, bovine cardiac myofibrils (Bos taurus, UniProt Q9BE39); assay: Skinned myofibril ATPase assay (PK/LDH-coupled), CDMF75; assay type: biochemical; conditions: inhibition of steady-state ATPase activity of bovine cardiac myofibrils at 75% Ca2+ activation (pCa75)
T1 construct: full-length cardiac myosin in the context of the native sarcomere, skinned myofibril assays were performed; from tissue; host or cells: bovine cardiac left ventricular tissue, detergent-skinned (Triton X-100) myofibrils
T1 sequence (Q9BE39 whole entry): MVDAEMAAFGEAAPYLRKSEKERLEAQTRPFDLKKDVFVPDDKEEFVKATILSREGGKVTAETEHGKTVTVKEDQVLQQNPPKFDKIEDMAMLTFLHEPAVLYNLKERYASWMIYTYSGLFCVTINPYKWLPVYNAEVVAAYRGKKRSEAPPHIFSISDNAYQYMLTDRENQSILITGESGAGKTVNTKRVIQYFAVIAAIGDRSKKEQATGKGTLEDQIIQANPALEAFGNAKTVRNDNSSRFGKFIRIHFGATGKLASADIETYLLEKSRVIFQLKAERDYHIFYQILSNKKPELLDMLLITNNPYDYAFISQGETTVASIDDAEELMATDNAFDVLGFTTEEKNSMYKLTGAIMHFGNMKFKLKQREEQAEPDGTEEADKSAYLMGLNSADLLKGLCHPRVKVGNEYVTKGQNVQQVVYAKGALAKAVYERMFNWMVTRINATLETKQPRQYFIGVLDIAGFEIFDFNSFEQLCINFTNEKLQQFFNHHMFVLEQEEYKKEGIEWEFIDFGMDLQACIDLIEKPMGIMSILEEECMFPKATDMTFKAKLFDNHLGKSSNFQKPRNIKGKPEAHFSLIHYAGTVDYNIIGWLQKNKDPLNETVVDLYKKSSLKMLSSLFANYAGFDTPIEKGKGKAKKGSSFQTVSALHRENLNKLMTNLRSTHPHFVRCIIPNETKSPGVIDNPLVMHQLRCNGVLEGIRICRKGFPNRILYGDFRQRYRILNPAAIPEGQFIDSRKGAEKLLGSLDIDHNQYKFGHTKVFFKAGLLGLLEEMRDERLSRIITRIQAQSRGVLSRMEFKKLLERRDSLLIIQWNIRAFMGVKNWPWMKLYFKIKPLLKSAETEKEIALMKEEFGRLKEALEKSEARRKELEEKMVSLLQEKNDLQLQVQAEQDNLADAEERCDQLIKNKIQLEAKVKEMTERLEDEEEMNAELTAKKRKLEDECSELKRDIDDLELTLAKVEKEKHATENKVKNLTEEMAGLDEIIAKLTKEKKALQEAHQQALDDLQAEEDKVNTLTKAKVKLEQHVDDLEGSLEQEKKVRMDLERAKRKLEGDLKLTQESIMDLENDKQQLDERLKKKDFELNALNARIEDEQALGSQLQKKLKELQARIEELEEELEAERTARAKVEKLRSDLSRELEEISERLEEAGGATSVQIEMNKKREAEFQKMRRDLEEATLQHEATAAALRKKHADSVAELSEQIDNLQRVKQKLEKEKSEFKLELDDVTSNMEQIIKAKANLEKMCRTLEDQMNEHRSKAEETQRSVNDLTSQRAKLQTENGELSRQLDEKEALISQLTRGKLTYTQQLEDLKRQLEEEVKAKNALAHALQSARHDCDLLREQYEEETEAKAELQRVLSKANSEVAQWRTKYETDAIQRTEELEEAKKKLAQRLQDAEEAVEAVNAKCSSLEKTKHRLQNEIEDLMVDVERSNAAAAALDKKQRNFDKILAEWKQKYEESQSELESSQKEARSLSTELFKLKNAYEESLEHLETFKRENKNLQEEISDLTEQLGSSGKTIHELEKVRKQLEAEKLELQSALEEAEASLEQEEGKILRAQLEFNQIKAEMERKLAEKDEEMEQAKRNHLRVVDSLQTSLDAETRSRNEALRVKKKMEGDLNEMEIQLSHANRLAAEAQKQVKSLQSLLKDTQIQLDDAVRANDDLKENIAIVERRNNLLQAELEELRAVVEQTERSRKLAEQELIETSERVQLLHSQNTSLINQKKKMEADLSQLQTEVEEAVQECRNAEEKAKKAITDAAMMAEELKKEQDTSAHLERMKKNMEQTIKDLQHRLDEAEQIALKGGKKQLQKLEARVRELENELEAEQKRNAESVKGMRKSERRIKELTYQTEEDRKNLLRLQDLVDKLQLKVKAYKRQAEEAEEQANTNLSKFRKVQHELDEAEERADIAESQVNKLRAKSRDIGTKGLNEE
T1 sequence (P85100 whole entry partner): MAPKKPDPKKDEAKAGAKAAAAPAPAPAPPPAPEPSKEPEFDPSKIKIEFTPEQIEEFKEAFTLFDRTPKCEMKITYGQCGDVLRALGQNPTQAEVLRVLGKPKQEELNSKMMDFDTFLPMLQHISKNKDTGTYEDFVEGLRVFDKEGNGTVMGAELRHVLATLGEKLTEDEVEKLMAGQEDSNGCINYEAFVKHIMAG
T1 sequence (Q3SZE5 whole entry partner): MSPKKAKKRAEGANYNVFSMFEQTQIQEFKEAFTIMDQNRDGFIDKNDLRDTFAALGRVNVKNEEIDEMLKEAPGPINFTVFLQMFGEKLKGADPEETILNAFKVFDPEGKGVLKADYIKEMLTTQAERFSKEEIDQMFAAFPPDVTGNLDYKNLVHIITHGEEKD
Experimental: To evaluate the effect of compounds on the ATPase activity of full-length cardiac myosin in the context of the native sarcomere, skinned myofibril assays were performed. Bovine cardiac myofibrils were obtained by homogenizing bovine cardiac left ventricular tissue in the presence of a detergent such as triton X-100. Such treatment removes membranes and a majority of the soluble cytoplasmic proteins but leaves intact the cardiac sarcomeric acto-myosin apparatus. Myofibril preparations retain the ability to hydrolyze ATP in an Ca^2+ regulated manner. ATPase activities of such myofibril preparations in the presence and absence of compounds were assayed at Ca^2+ concentrations activating to a defined fraction of the maximal rate (i.e., 25%, 75%). Small molecule agents were assessed for their ability to inhibit the steady-state ATPase activity of bovine cardiac myofibrils using pyruvate kinase and lactate dehydrogenase (PK/LDH)-coupled enzyme system. This assay regenerates myosin-produced ADP into ATP by oxidizing NADH, producing an absorbance change at 340 nm. Prior to testing small molecule agents, the bovine cardiac myofibrils were assessed for their calcium responsiveness and the calcium concentration that achieves either a 50% (pCa50) or 75% (pCa75) activation of the myofibril system was chosen as the final condition for assessing the inhibitory activity of the small molecule agents. All enzymatic activity was measured in a buffered solution containing 12 mM PIPES (piperazine-N,N′-bis(2-ethanesulfonic acid), 2 mM magnesium chloride at pH 6.8 (PM 12 buffer). Final assay conditions were 1 mg/mL of bovine cardiac myofibrils, 4 U/mL pyruvate kinase, 6 U/mL lactate dehydrogenase, 50 μM ATP, 0.1 mg/mL BSA (bovine serum albumin), 10 ppm antifoam, 1 mM DTT, 0.5 mM NADH, 1.5 mM PEP, 0.6 mM EGTA, and an amount of CaCl2 sufficient to achieve either 50% or 75% activation of the myofibril ATPase activity. Results for compounds tested are provided in Table A. Compounds tested were prepared in accordance with the synthetic procedures described herein.

[3] = tested on: rat cardiac contractility; assay: Echocardiography assessment of acute pharmacodynamic effect in rat cardiac contractility (continuous IV infusion); assay type: in vivo, Sprague Dawley rats; conditions: estimated plasma concentration for 20% relative reduction in cardiac fractional shortening, loading + maintenance IV dose 0.5 + 1.5 mg/kg, isoflurane anesthesia
Experimental: Echocardiography assessment of acute pharmacodynamic effect in rat cardiac contractility.
Assessment of in vivo cardiac function by echocardiography was performed in male Sprague Dawley rats under isoflurane (1-3%) anesthesia. 2-D M-mode images of the left ventricle were acquired in the parasternal long-axis view before and during administration of compounds by continuous IV infusion. In vivo fractional shortening was determined by M-mode image analysis with the following calculation: ((End diastolic diameter−end systolic diameter)/end diastolic diameter×100). For continuous IV infusion experiments, three pre-dose baseline M-mode images were taken at 1 minute intervals prior to infusion of compound. Compounds were formulated in 50% Propylene Glycol (PG): 16% Cavitron: 10% dimethylacetamide (DMA) and delivered via a jugular vein catheter at the rate of 1 mL/kg/h. An estimated loading and maintenance IV infusion dose was administered to establish a steady state plasma concentration that produced a sustained, 20% relative reduction in cardiac fractional shortening for 60 minutes. During infusion, M-mode images were taken at 5 minute intervals for 60 minutes. Blood samples were taken to determine the plasma concentration of the compounds. Data were reported as an estimated IC20 value, which is the concentration at which fractional shortening is […]. […]

| SMILES | % FS (% reduction from baseline) ± SEM ([1]; concentration 1 μM) [%] | CDMF75 IC15 [2] [µM] | IC50 [2] [µM] | IC20 at 1.5 mg/kg [3] [µM] | % FS (% reduction from baseline) ± SEM ([1]; concentration 5 μM) [%] | % FS (% reduction from baseline) ± SEM ([1]; concentration 10 μM) [%] |
| --- | --- | --- | --- | --- | --- | --- |
| Cc1cc(-c2ccc(CNc3cnccn3)cc2)no1 [Compound 52, N-(4-(5-methylisoxazol-3-yl)benzyl)pyrazin-2-amine] | 17.4 ± 6.8 | 0.2 | 1 |  |  |  |
| Cc1nc(-c2ccc([C@@H](C)Nc3cnccn3)cc2)no1 [Compound 28, (R)-N-(1-(4-(5-methyl-1,2,4-oxadiazol-3-yl)phenyl)ethyl)pyrazin-2-amine] |  | 0.6 | 2.6 | 0.8 | 43.6 ± 9.3 |  |
| C[C@@H](Nc1cnccn1)c1ccc(-c2noc(C(F)(F)F)n2)cc1 [Compound 34, (R)-N-(1-(4-(5-(trifluoromethyl)-1,2,4-oxadiazol-3-yl)phenyl)ethyl)pyrazin-2-amine] |  | 0.5 | 2.3 |  | 30.7 ± 5.0 |  |
| Cc1nc(-c2ccc(CNc3cc(C(N)=O)ccn3)cc2)no1 [Compound 19, 2-((4-(5-methyl-1,2,4-oxadiazol-3-yl)benzyl)amino) isonicotinamide] |  | 1.2 | 4.3 |  |  | 14.4 ± 3.4 |
